#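 Briefly, cells in 96-well plates were exposed to five compound concentrations for 48 h, and endpoints were estimated by linear interpolation. Abbreviation: GI50, concentration required for 50% inhibition of growth.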 Calls of active or inactive are those of the source. Rule as the data show it: active = GI50 up to about 1.1 µM and inactive = higher.
# Legend:
# Test in all cases: growth of human tumour cells (NCI), 48 h
# CCRF-CEM = system: CCRF-CEM
# HCT-116 = system: HCT-116
# HL-60 = system: HL-60
# HOP-62 = system: HOP-62
# IGROV-1 = system: IGROV-1
# K562 = system: K562
# Malme-3M = system: Malme-3M
# OVCAR-8 = system: OVCAR-8
# SF-268 = system: SF-268
# SF-539 = system: SF-539
# SK-MEL-28 = system: SK-MEL-28
# SK-MEL-5 = system: SK-MEL-5
# SR = system: SR
# UACC-257 = system: UACC-257
# UO-31 = system: UO-31
# LOX IMVI = system: LOX IMVI
# RXF 393 = system: RXF 393
SMILES,GI50 (CCRF-CEM),GI50 (HCT-116),GI50 (HL-60),GI50 (HOP-62),GI50 (IGROV-1),GI50 (K562),GI50 (Malme-3M),GI50 (OVCAR-8),GI50 (SF-268),GI50 (SF-539),GI50 (SK-MEL-28),GI50 (SK-MEL-5),GI50 (SR),GI50 (UACC-257),GI50 (UO-31),GI50 (LOX IMVI),GI50 (RXF 393)
Cc1cc(C=O)c2c(=O)c3c(O)ccc(/C=C/C(C)C)c3oc2c1,> 10 µM (inactive),20.9 µM (inactive),28.3 µM (inactive),> 100 µM (inactive),52.4 µM (inactive),39.8 µM (inactive),> 100 µM (inactive),65.2 µM (inactive),41.9 µM (inactive),> 100 µM (inactive),37.9 µM (inactive),65.5 µM (inactive),26.7 µM (inactive),> 100 µM (inactive),> 100 µM (inactive),,
COc1cc2c(cc1O)C=NCC2,50 µM (inactive),> 100 µM (inactive),> 100 µM (inactive),,> 100 µM (inactive),> 100 µM (inactive),> 100 µM (inactive),> 100 µM (inactive),> 100 µM (inactive),> 100 µM (inactive),> 100 µM (inactive),63.5 µM (inactive),,> 100 µM (inactive),> 100 µM (inactive),,
N#C/C(=C(/S)Nc1ccccc1)c1nc2ccccc2[nH]1,> 10 µM (inactive),> 10 µM (inactive),> 10 µM (inactive),> 10 µM (inactive),1 µM (active),> 10 µM (inactive),> 10 µM (inactive),> 10 µM (inactive),> 10 µM (inactive),> 10 µM (inactive),> 10 µM (inactive),> 10 µM (inactive),> 10 µM (inactive),> 10 µM (inactive),> 10 µM (inactive),> 10 µM (inactive),
CC(C)C(=O)/C=C/c1ccc(Cl)cc1,4.19 µM (inactive),2.67 µM (inactive),8.22 µM (inactive),,21.6 µM (inactive),3.48 µM (inactive),,,23.8 µM (inactive),10.4 µM (inactive),> 10 µM (inactive),8.57 µM (inactive),4.84 µM (inactive),20.2 µM (inactive),12.2 µM (inactive),8.83 µM (inactive),17.6 µM (inactive)
COc1cc(C2c3cc4c(cc3[C@@H](N(C)c3ccc(N(C)C)cc3)C3COC(=O)C23)OCO4)cc(OC)c1O (stereo not given in full),0.343 µM (active),0.399 µM (active),0.362 µM (active),1.75 µM (inactive),0.536 µM (active),0.329 µM (active),,0.365 µM (active),0.343 µM (active),0.255 µM (active),1.25 µM (inactive),0.383 µM (active),0.427 µM (active),1.39 µM (inactive),0.964 µM (active),0.437 µM (active),
CN(C)/C(N)=N\C#N,,> 100 µM (inactive),> 100 µM (inactive),> 100 µM (inactive),> 100 µM (inactive),> 100 µM (inactive),> 100 µM (inactive),> 100 µM (inactive),> 100 µM (inactive),> 100 µM (inactive),> 100 µM (inactive),> 100 µM (inactive),,> 100 µM (inactive),> 100 µM (inactive),,17.5 µM (inactive)
NC1=NN(c2ccccc2)C(=O)C1/C(=N\NC(=O)c1cc2ccccc2cc1O)C(=O)Nc1cccc(C(F)(F)F)c1 (stereo not given),7.06 µM (inactive),25.4 µM (inactive),6.65 µM (inactive),39.4 µM (inactive),27.8 µM (inactive),,37 µM (inactive),24.1 µM (inactive),23.5 µM (inactive),,57.7 µM (inactive),23.1 µM (inactive),,26.4 µM (inactive),32.8 µM (inactive),25.9 µM (inactive),55.1 µM (inactive)
CC1(C)C(=O)C(C)(C)C1=NN,,> 100 µM (inactive),> 100 µM (inactive),> 100 µM (inactive),> 100 µM (inactive),> 100 µM (inactive),> 100 µM (inactive),> 100 µM (inactive),> 100 µM (inactive),> 100 µM (inactive),> 100 µM (inactive),> 100 µM (inactive),> 100 µM (inactive),> 100 µM (inactive),> 100 µM (inactive),> 100 µM (inactive),> 100 µM (inactive)
NC(=O)c1c[se]c(C2OC(COP(=O)(O)CP(=O)(O)OCC3OC(n4cnc5c(N)ncnc54)C(O)C3O)C(O)C2O)n1 (stereo not given),29.1 µM (inactive),52.1 µM (inactive),28.2 µM (inactive),> 100 µM (inactive),84.3 µM (inactive),15.9 µM (inactive),> 100 µM (inactive),87.9 µM (inactive),> 100 µM (inactive),> 100 µM (inactive),> 100 µM (inactive),> 100 µM (inactive),35 µM (inactive),> 100 µM (inactive),> 100 µM (inactive),,> 100 µM (inactive)
COc1cccc(NC(=O)CSc2nnc(-c3ccc(NC(C)=O)cc3)o2)c1,79.1 µM (inactive),> 100 µM (inactive),> 100 µM (inactive),> 100 µM (inactive),50 µM (inactive),> 100 µM (inactive),> 100 µM (inactive),> 100 µM (inactive),> 100 µM (inactive),,> 100 µM (inactive),> 100 µM (inactive),90.2 µM (inactive),> 100 µM (inactive),80.4 µM (inactive),> 100 µM (inactive),> 100 µM (inactive)
COc1ccc(C(CCC(C)=O)C(=O)O)cc1OC (stereo not given),,> 100 µM (inactive),,> 100 µM (inactive),> 100 µM (inactive),> 100 µM (inactive),> 100 µM (inactive),> 100 µM (inactive),> 100 µM (inactive),> 100 µM (inactive),> 100 µM (inactive),> 100 µM (inactive),> 100 µM (inactive),> 100 µM (inactive),,> 100 µM (inactive),> 100 µM (inactive)
CCSC(SCC)=C1C(=O)N(c2ccccc2)N=C1C,2.92 µM (inactive),15.1 µM (inactive),2.33 µM (inactive),23.3 µM (inactive),17.4 µM (inactive),5.71 µM (inactive),10.4 µM (inactive),11.6 µM (inactive),14.1 µM (inactive),,12.9 µM (inactive),18.3 µM (inactive),15.6 µM (inactive),4.06 µM (inactive),15.6 µM (inactive),12.4 µM (inactive),1.95 µM (inactive)
Nc1cccc(S(=O)(=O)NCC(=O)O)c1,> 100 µM (inactive),> 100 µM (inactive),,> 100 µM (inactive),> 100 µM (inactive),> 100 µM (inactive),> 100 µM (inactive),> 100 µM (inactive),> 100 µM (inactive),> 100 µM (inactive),> 100 µM (inactive),> 100 µM (inactive),,> 100 µM (inactive),73.5 µM (inactive),> 100 µM (inactive),> 100 µM (inactive)
COc1ccc(C[C@]23CCC(=O)N2CCc2cc(OC)c(O)cc23)cc1O,> 100 µM (inactive),> 100 µM (inactive),> 100 µM (inactive),> 100 µM (inactive),> 100 µM (inactive),> 100 µM (inactive),> 100 µM (inactive),30 µM (inactive),> 100 µM (inactive),> 100 µM (inactive),> 100 µM (inactive),> 100 µM (inactive),,> 100 µM (inactive),> 100 µM (inactive),> 100 µM (inactive),> 100 µM (inactive)
CC1(O)CCC2(C)C(=O)C1(C)CCC21OCCO1 (stereo not given),> 100 µM (inactive),,> 100 µM (inactive),,> 100 µM (inactive),> 100 µM (inactive),> 100 µM (inactive),> 100 µM (inactive),> 100 µM (inactive),> 100 µM (inactive),> 100 µM (inactive),> 100 µM (inactive),> 100 µM (inactive),> 100 µM (inactive),> 100 µM (inactive),,> 100 µM (inactive)
COc1ccc(CNc2cc(OC)cc(OC)c2)cc1,,52.4 µM (inactive),> 39.2 µM (inactive),> 61.5 µM (inactive),> 71.6 µM (inactive),29.8 µM (inactive),> 56.6 µM (inactive),> 82 µM (inactive),33.9 µM (inactive),,51.5 µM (inactive),30.3 µM (inactive),,64 µM (inactive),29.7 µM (inactive),56.8 µM (inactive),43.8 µM (inactive)
CCOP1(=O)C=CC(Cl)=C(C)C1 (stereo not given),3.13 µM (inactive),5.58 µM (inactive),3.57 µM (inactive),27.2 µM (inactive),23.4 µM (inactive),5.06 µM (inactive),14.3 µM (inactive),19.6 µM (inactive),22.1 µM (inactive),17.8 µM (inactive),16.2 µM (inactive),17.7 µM (inactive),,15.5 µM (inactive),25.6 µM (inactive),19.2 µM (inactive),4.27 µM (inactive)
CC(C)CC(NC(=O)c1cccc(O)c1O)C(=O)NCc1cc(CNC(=O)C(CC(C)C)NC(=O)c2cccc(O)c2O)cc(CNC(=O)C(CC(C)C)NC(=O)c2cccc(O)c2O)c1 (stereo not given),4.91 µM (inactive),15.9 µM (inactive),4.34 µM (inactive),15 µM (inactive),5.66 µM (inactive),18.9 µM (inactive),19.6 µM (inactive),40.6 µM (inactive),8.13 µM (inactive),5.47 µM (inactive),13.7 µM (inactive),12.8 µM (inactive),8.36 µM (inactive),20.1 µM (inactive),12.3 µM (inactive),8.63 µM (inactive),

# From ChEMBL document CHEMBL1201862, “PubChem BioAssay data set” (2004)
